Measurements taken from US20220225616A1, “Antifungal Wallboards” (LANXESS Deutschland GmbH, priority 2019, published 2022).
“Also recorded” adds a separate entry of the source.

How the values were obtained:
Stachybotris chartarum = experiment: Gypsum board hand sheet efficacy testing (core protection), ASTM G 21-09; details: in gypsum core, 4 weeks at 28-30° C.
Excerpt: (§1) For examination of the antifungal performance of the TBZ/BBIT combinations testing directly in gypsum boards provides realistic and practically relevant data for evaluation. […] For this purpose, a typical slurry recipe as given below for board production is used. Gypsum Board recipe:
(§2) The slurry is formed by mixing the dry components and the wet components together. The slurry is then mixed to achieve a homogeneous consistency. The fungicides are incorporated during preparation of the gypsum slurry by adding and mixing the fungicidal mixtures. For sandwiching the gypsum core, untreated cardboard (without fungicide) with a grammage of appr. 180 g/m^2 was used and after assembly of the plate the hand sheets are dried. The following antifungal compounds and respective formulations were used: • Thiabendazole • Butylbenzthiazole
(§3) For efficacy testing a test method of ASTM G 21 of 2009 was applied. As only change additional to the fungi mix as required by ASTM G 21-09, Fusarium solani and Aspergillus hiratsukae were included as further components of the mixed inoculum. According to this method, the manufactured gypsum boards as described above and after having been cut to an adequate size are placed on an agarplate and superficially are spoiled with fungal spores for a determined period of time of at the most 4 weeks. The respective total amount of actives in ppm based in gypsum/plaster (CaSO4(0.5 H2O) can be seen in the table.
(§4) Spore suspensions are produced for each fungi (spore concentrations of approximately 10^6/ml). Organisms which are included in ASTM G 21 comprise Aspergillus niger (ATCC 9642), Aureobasidium pullulans (ATCC 15233) Chaetomium globosum (ATCC 6205), Gliocladium virens (ATCC 6459) and Penicillium pinophilium (ATCC 11797) (as pure culture but also as mixed inoculum), however any other fungi species known to be able to grow in gypsum boards may be used in addition or instead. Mineral agar (according to ASTM G21 of 2009) was used as growth media in the agar plates. Before inoculation the gypsum board hand sheets are cut into pieces of appr. 5×5 cm.
(§5) For every concentration level, 3 test pieces are used in the test. Each sample is placed in a separate petri dish and then inoculated with the fungi. The samples are then incubated at 28-30° C. for 28 days. Pre-reading of the samples may be performed at approximately 10 days after inoculation. The activity of the treatments may be assessed visually, using a rating system of 0-4 for growth inhibition of fungal growth.
(§6) The reported results are recorded after 4 weeks testing at 28-30° C. according to the requirements of test method ASTM G 21 can be seen from Table 2: […]

[1] = test system: Fungi Mix: standard ASTM G 21-09 species extended by Fusarium solani and Aspergillus hiratsukae; experiment: as above; details: for Fungal growth rating, Fungi Mix: in gypsum core, 4 weeks at 28-30° C.; for Overall efficacy in gypsum board test, in words: tested concentration range 25-300 ppm, interpretation of tables 2 and 3
Excerpt: as §1, §2, §3, §4, §5, §6

[2] = 25 ppm total actives based on gypsum/plaster
[3] = 50 ppm total actives based on gypsum/plaster
[4] = 100 ppm total actives based on gypsum/plaster
[5] = 200 ppm total actives based on gypsum/plaster
[6] = 300 ppm total actives based on gypsum/plaster

Row | SMILES | Fungal growth rating, Stachybotris (Stachybotris chartarum; [2]) | Fungal growth rating, Stachybotris (Stachybotris chartarum; [3]) | Fungal growth rating, Stachybotris (Stachybotris chartarum; [4]) | Fungal growth rating, Stachybotris (Stachybotris chartarum; [5]) | Fungal growth rating, Stachybotris (Stachybotris chartarum; [6]) | Fungal growth rating, Fungi Mix [1, 2] | Fungal growth rating, Fungi Mix [1, 3] | Fungal growth rating, Fungi Mix [1, 4] | Fungal growth rating, Fungi Mix [1, 5] | Fungal growth rating, Fungi Mix [1, 6] | Overall efficacy in gypsum board test, in words [1]
1 | CCCCn1sc2ccccc2c1=O [BBIT, 2-butyl-1,2-benzisothiazolin-3-one] | 4 (Heavy growth (60% to complete coverage)) | 4 (Heavy growth (60% to complete coverage)) | 4 (Heavy growth (60% to complete coverage)) | 2 (Light growth (10 to 30%)) | 1 (Traces of growth (less than 10%)) | 4 (Heavy growth (60% to complete coverage)) | 4 (Heavy growth (60% to complete coverage)) | 4 (Heavy growth (60% to complete coverage)) | 2 (Light growth (10 to 30%)) | 1 (Traces of growth (less than 10%)) | better than TBZ, however still not fully satisfactory
2 | c1ccc2[nH]c(-c3cscn3)nc2c1 [TBZ, thiabendazole] | 4 (Heavy growth (60% to complete coverage)) | 4 (Heavy growth (60% to complete coverage)) | 4 (Heavy growth (60% to complete coverage)) | 4 (Heavy growth (60% to complete coverage)) | 3 (Medium growth (30 to 60%)) | 4 (Heavy growth (60% to complete coverage)) | 4 (Heavy growth (60% to complete coverage)) | 4 (Heavy growth (60% to complete coverage)) | 4 (Heavy growth (60% to complete coverage)) | 3 (Medium growth (30 to 60%)) | not good enough for control of fungi growth; also recorded: neither TBZ nor AZO alone are good enough to pass the ASTM G 21 test
3 | CO/C=C(/C(=O)OC)c1ccccc1Oc1cc(Oc2ccccc2C#N)ncn1 [AZO, Azoxystrobin] | 4 (Heavy growth (60% to complete coverage)) | 4 (Heavy growth (60% to complete coverage)) | 4 (Heavy growth (60% to complete coverage)) | 4 (Heavy growth (60% to complete coverage)) | 4 (Heavy growth (60% to complete coverage)) | 4 (Heavy growth (60% to complete coverage)) | 4 (Heavy growth (60% to complete coverage)) | 4 (Heavy growth (60% to complete coverage)) | 4 (Heavy growth (60% to complete coverage)) | 4 (Heavy growth (60% to complete coverage)) | neither TBZ nor AZO alone are good enough to pass the ASTM G 21 test
